Results from patent publication US20240000700A1, “PLANT EXTRACTING METHOD” (GIVAUDAN SA, priority 2020, published 2024).

Test system: NHEKs
Experiment: Anti-oxidant activity: ROS production (DCFH probe) under TBP stress
Type: cell-based, human
Conditions: TBP 5 mM; positive control at 200 μM, 24 h pre-incubation
Description: NHEKs were seeded in a black plate with a glass bottom at 20′000 cells per well pre-coated with type I collagen. Cells were incubated at 37° C. with 5% CO2 for 24 h. On the next day, the cells were incubated for 24 h with the patchouli extracts and some of the fractions thereof described in examples 1 and 2 above, each at 0.5% (v/v), or Resveratrol (positive control) at 200 μM. After this pre-incubation, the cells were incubated with dichloro-dihydro-fluorescein (DCFH) probe at 50 μM for 30-45 min. The cells were then rinsed two times with PBS and incubated with PBS alone or with PBS containing 5 mM tert-butyl peroxide (TBP) to induce an oxidative stress. Fluorescence reading was performed every 10 min for 1 h, exciting at 488 nm and emitting at 525 nm.

Oc1ccc(C=Cc2cc(O)cc(O)c2)cc1 [Resveratrol]
ROS Production [% of TBP, untreated] Average: 18 % of TBP, untreated
